In patent US8431563B2 (priority 2010, dated 2013):
Read-outs that look alike come from different tables or passages of the source.

Columns and labels:
[1] = molecular target: T1, GKRP (Glucokinase Regulatory Protein) with human His-hepatic GK (Homo sapiens, UniProt Q14397); assay: biochemical
T1 sequence (Q14397 1-625): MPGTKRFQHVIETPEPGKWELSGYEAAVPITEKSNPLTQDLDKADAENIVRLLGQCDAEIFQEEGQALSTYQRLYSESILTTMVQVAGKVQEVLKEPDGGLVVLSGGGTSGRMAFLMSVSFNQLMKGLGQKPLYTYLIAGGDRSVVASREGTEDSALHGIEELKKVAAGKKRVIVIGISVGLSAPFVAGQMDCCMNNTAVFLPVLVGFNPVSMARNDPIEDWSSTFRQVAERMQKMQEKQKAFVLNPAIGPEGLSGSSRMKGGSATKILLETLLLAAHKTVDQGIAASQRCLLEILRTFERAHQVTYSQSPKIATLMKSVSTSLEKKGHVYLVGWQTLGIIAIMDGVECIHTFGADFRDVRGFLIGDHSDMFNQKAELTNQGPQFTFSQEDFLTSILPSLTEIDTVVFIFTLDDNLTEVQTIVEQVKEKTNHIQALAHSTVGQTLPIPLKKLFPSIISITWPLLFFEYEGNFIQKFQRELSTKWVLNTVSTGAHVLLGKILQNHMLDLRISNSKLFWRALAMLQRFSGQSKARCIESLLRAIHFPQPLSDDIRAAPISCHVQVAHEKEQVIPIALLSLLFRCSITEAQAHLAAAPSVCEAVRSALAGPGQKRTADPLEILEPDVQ
Method: GKRP LC MS/MS-2 Biochemical Assay
This assay is used to directly measure the formation of ^13C-glucose-6-phosphate from ^13C-glucose by LC MS/MS. Begin by preparing the following solutions: Compound Buffer (CB): 50 mM Tris, pH 7.5/4 mM MgCl2/6% DMSO/fresh 10 mM DTT from 1M frozen stock. Enzyme Buffer (EB): 50 mM Tris, pH 7.5/4 mM MgCl2/6% DMSO/fresh 0.1% BSA/fresh 0.01% Brij-35 (10% BSA and 1% Brij-35 stock). GK (Glucokinase) Working Stock (5×): Dilute human His-hepatic GK to 30 nM in EB buffer. […] After 30 minutes add 10 μl of GK Working Stock (5×). Re-seal the plate and incubate for another 30 minutes at room temperature while mixing. After the second 30 minutes, stop the reaction by the addition of 50 μl of 100% acetonitrile, seal, and mix for 5-10 minutes. Run 10 μl of this sample through the LC MS/MS (API 3200, Applied Biosystems, Carlsbad, Calif.).

[2] = molecular target: T2, interaction between glucokinase (GK) and glucokinase regulatory protein (GKRP) (Homo sapiens, UniProt Q14397); assay: biochemical; type: binding
T2 sequence (Q14397 1-625): T1 sequence (Q14397 1-625)
Method: GK-GKRP Binding Assay Protocol
This assay is used to directly measure the interaction between glucokinase (GK) and glucokinase regulatory protein (GKRP). Begin by preparing the following solutions. Assay Buffer: 20 mM Tris, pH 7.5/0.05% BSA/1 mM DTT/1 μM sorbitol-6-phosphate. […] Combine the following reagents in a white 96-well half area plate. Pipette 14 μl of the diluted avi-tagged GKRP into each well. Add 1 μl of compound to be tested and incubate at room temperature for 20 minutes. After 20 minutes, add 5 μl of assay buffer containing 6 nM GK-fluorescein. […] Incubate in a dark room for 2 hours at room temperature. After 2 hours read the plate using an Envision plate reader (Perkin Elmer, Waltham Mass.).

[3] = avi-tagged GKRP, GK-fluorescein, AlphaScreen beads, read-out: GK-GKRP IC50 (Binding)
[4] = 13C-glucose-6-phosphate formation, 280 nM GKRP (10×), 30 nM GK (5×), read-out: GK-GKRP EC50 (LC MS/MS-2)
[5] = GK-GKRP EC50 (LC MS/MS-2), 13C-glucose-6-phosphate formation, 280 nM GKRP (10×), 30 nM GK (5×)

Row | Compound | IC50 [2, 3] [nM] | EC50 [1, 4] [nM] | other results
1 | CC(O)(c1ccc(N2CCN(S(=O)(=O)c3cccs3)C[C@@H]2CN2CC3(COC3)C2)cc1)C(F)(F)F (mixture of isomers) [Example 84, 1,1,1-trifluoro-2-(4-((2S)-2-(2-oxa-6-azaspiro[3.3]hept-6-ylmethyl)-4-(2-thiophenylsulfonyl)-1-piperazinyl)phenyl)-2-propanol] | 667 | – | EC50 ([1]; GK-GKRP EC50 (LC MS/MS-2)): 659 nM
2 | CC1CS(=O)(=O)CCN1C[C@H]1CN(S(=O)(=O)c2cccs2)CCN1c1ccc(C(C)(O)C(F)(F)F)cc1 (mixture of isomers) [Example 86, 1,1,1-trifluoro-2-(4-((2S)-2-((3-methyl-1,1-dioxido-4-thiomorpholinyl)methyl)-4-(2-thiophenylsulfonyl)-1-piperazinyl)phenyl)-2-propanol] | 61 | 115 | –
3 | CC(O)(c1ccc(N2CCN(S(=O)(=O)c3cccs3)C[C@@H]2CN2CCS(=O)(=O)CC2C2CC2)cc1)C(F)(F)F (mixture of isomers) [Example 87, 2-(4-((2S)-2-((3-cyclopropyl-1,1-dioxido-4-thiomorpholinyl)methyl)-4-(2-thiophenylsulfonyl)-1-piperazinyl)phenyl)-1,1,1-trifluoro-2-propanol] | 229 | 246 | –
4 | C[C@H]1COCCN1C[C@H]1CN(S(=O)(=O)c2nccs2)CCN1c1ccc(C(C)(O)C(F)(F)F)cc1 (mixture of isomers) [Example 102, 1,1,1-trifluoro-2-(4-((2S)-2-(((3S)-3-methyl-4-morpholinyl)methyl)-4-(1,3-thiazol-2-ylsulfonyl)-1-piperazinyl)phenyl)-2-propanol] | 134 | 137 | –
5 | CCOC(=O)CC1COCCN1C[C@H]1CN(S(=O)(=O)c2cccs2)CCN1c1ccc(C(C)(O)C(F)(F)F)cc1 (mixture of isomers) [Example 113] | 333 | 308 | –
6 | CN(C)C(=O)CC1COCCN1C[C@H]1CN(S(=O)(=O)c2cccs2)CCN1c1ccc(C(C)(O)C(F)(F)F)cc1 (mixture of isomers) [Example 114, N,N-dimethyl-2-(4-(((2S)-4-(2-thiophenylsulfonyl)-1-(4-(2,2,2-trifluoro-1-hydroxy-1-methylethyl)phenyl)-2-piperazinyl)methyl)-3-morpholinyl)acetamide] | 90 | 124 | –
7 | CC(O)(c1ccc(N2CCN(S(=O)(=O)c3cccs3)C[C@@H]2COCc2ccco2)cc1)C(F)(F)F (mixture of isomers) [Example 116, 1,1,1-trifluoro-2-(4-((2R)-2-((2-furanylmethoxy)methyl)-4-(2-thiophenylsulfonyl)-1-piperazinyl)phenyl)-2-propanol] | 284 | 103 | –
8 | CC1(COC[C@H]2CN(S(=O)(=O)c3cccs3)CCN2c2ccc(C(C)(O)C(F)(F)F)cc2)COC1 (mixture of isomers) [Example 117, 1,1,1-trifluoro-2-(4-((2R)-2-(((3-methyl-3-oxetanyl)methoxy)methyl)-4-(2-thiophenylsulfonyl)-1-piperazinyl)phenyl)-2-propanol] | 467 | 463 | –
9 | CC(O)(c1ccc(N2CCN(S(=O)(=O)c3cccs3)C[C@@H]2COCC2CCCO2)cc1)C(F)(F)F (mixture of isomers) [Example 118, 1,1,1-trifluoro-2-(4-((2R)-2-((tetrahydro-2-furanylmethoxy)methyl)-4-(2-thiophenylsulfonyl)-1-piperazinyl)phenyl)-2-propanol] | 570 | 1110 | –
10 | Cn1cnc(COC[C@H]2CN(S(=O)(=O)c3cccs3)CCN2c2ccc(C(C)(O)C(F)(F)F)cc2)c1 (mixture of isomers) [Example 119, 1,1,1-trifluoro-2-(4-((2R)-2-(((1-methyl-1H-imidazol-4-yl)methoxy)methyl)-4-(2-thiophenylsulfonyl)-1-piperazinyl)phenyl)-2-propanol] | 392 | 169 | –
11 | CC(O)(c1ccc(N2CCN(S(=O)(=O)c3cccs3)C[C@@H]2CNC2CCOCC2)cc1)C(F)(F)F (mixture of isomers) [Example 120, 1,1,1-trifluoro-2-(4-((2S)-2-((tetrahydro-2H-pyran-4-ylamino)methyl)-4-(2-thiophenylsulfonyl)-1-piperazinyl)phenyl)-2-propanol] | 493 | – | EC50 [1, 5]: 656 nM
12 | C[C@H]1COCCN1C[C@H]1CN(S(=O)(=O)c2ccc(N)nc2)CCN1c1ccc(C(C)(O)C(F)(F)F)cc1 (mixture of isomers) [Example 125, 2-(4-((2S)-4-((6-amino-3-pyridinyl)sulfonyl)-2-(((3S)-3-methyl-4-morpholinyl)methyl)-1-piperazinyl)phenyl)-1,1,1-trifluoro-2-propanol] | 3 | 20 | –
13 | CC(O)(c1cnc(N2CCN(S(=O)(=O)c3ccc(N)nc3)C[C@@H]2CC2CCOCC2)nc1)C(F)(F)F (mixture of isomers) [Example 131] | 124 | 102 | –
14 | CC(O)(c1cnc(N2CCN(S(=O)(=O)c3ccc(N)s3)C[C@@H]2CC2CCOCC2)nc1)C(F)(F)F (mixture of isomers) [Example 135, 2-(2-((2S)-4-((5-amino-2-thiophenyl)sulfonyl)-2-(tetrahydro-2H-pyran-4-ylmethyl)-1-piperazinyl)-5-pyrimidinyl)-1,1,1-trifluoro-2-propanol] | 55 | 108 | –
15 | CC(O)(c1ccc(N2CCN(S(=O)(=O)c3ccc(N)s3)C[C@@H]2Cc2ccccc2)cc1)C(F)(F)F (mixture of isomers) [Example 136, 2-(4-((2S)-4-((5-amino-2-thiophenyl)sulfonyl)-2-benzyl-1-piperazinyl)phenyl)-1,1,1-trifluoro-2-propanol] | 250 | 146 | –
16 | C[C@H]1CN(S(=O)(=O)c2ccc(N)s2)CCN1c1ncc(C(C)(O)C(F)(F)F)cn1 (mixture of isomers) [Example 137, 2-(2-((2S)-4-((5-amino-2-thiophenyl)sulfonyl)-2-methyl-1-piperazinyl)-5-pyrimidinyl)-1,1,1-trifluoro-2-propanol] | – | – | EC50 ([1]; GK-GKRP EC50 (LC MS/MS-2)): 658 nM; IC50 ([2]; GK-GKRP IC50 (Binding)): 281 nM
17 | CC(O)(c1ccc(N2CCN(S(=O)(=O)c3cccs3)C[C@@H]2CN2C3CCCC2CC(=O)C3)cc1)C(F)(F)F (mixture of isomers) [Example 140, 9-(((2S)-4-(2-thiophenylsulfonyl)-1-(4-(2,2,2-trifluoro-1-hydroxy-1-methylethyl)phenyl)-2-piperazinyl)methyl)-9-azabicyclo[3.3.1]nonan-3-one] | – | – | EC50 [1, 5]: 15 nM; IC50 ([2]; GK-GKRP IC50 (Binding), avi-tagged GKRP, GK-fluorescein, AlphaScreen beads): 7 nM
18 | CC(O)(c1ccc(N2CCN(S(=O)(=O)c3cccs3)C[C@@H]2CN2C3CCCC2CC(O)C3)cc1)C(F)(F)F (mixture of isomers) [Example 141, 9-(((2S)-4-(2-thiophenylsulfonyl)-1-(4-(2,2,2-trifluoro-1-hydroxy-1-methylethyl)phenyl)-2-piperazinyl)methyl)-9-azabicyclo[3.3.1]nonan-3-ol (endo)] | 11 | – | EC50 [1, 5]: 26 nM
19 | CC(F)(c1ccc(N2CCN(S(=O)(=O)c3cccs3)C[C@@H]2CN2C3CCCC2CC(F)C3)cc1)C(F)(F)F (mixture of isomers) [Example 142, 3-fluoro-9-(((2S)-1-(4-(1,2,2,2-tetrafluoro-1-methylethyl)phenyl)-4-(2-thiophenylsulfonyl)-2-piperazinyl)methyl)-9-azabicyclo[3.3.1]nonane (exo)] | 47 | 189 | –
